# Measured values from paper PMC12396409, “Screening and hit evaluation of a microbial metabolite library against the pathogenic Plasmodium falciparum and Toxoplasma gondii parasites” (International Journal for Parasitology: Drugs and Drug …, 2025).
# Where two headings read alike, the source gives them in different places. Where a SMILES comes first, the peptide text is derived from it. Bridges are numbered along the chain shown (N, C = ends). [ ]: non-standard residue; d: D form. The star is where a group is joined. Octatrienoyl(2E,4E,6E) = C/C=C/C=C/C=C/C(=O)*; NMeA = CN[C@@H](C)C(=O)O
# Key:
# [1] = system: P. falciparum 3D7 parasites; experiment: P. falciparum growth inhibition assay, 1-cycle (72 h treatment), SYBR DNA staining (library screen at 2 μg/mL and dose-response); format: cell-based, Plasmodium falciparum; settings: for activity at 2 µg/mL: Plasmodium falciparum
# [2] = system: P. falciparum 3D7 parasites; experiment: P. falciparum growth inhibition assay, 2-cycle (120 h treatment), delayed-death screen and dose-response; format: cell-based, Plasmodium falciparum; settings: for activity at 2 µg/mL: Plasmodium falciparum
# [3] = system: T. gondii RH strain (RH-Tub-eYFP) tachyzoites; experiment: microbe, parasite or virus in culture; format: cell-based, Toxoplasma gondii; settings: 72 h; for percent parasite growth at 2 µg/mL: Toxoplasma gondii
# [4] = P. falciparum, 72 h, screen at 2 μg/mL, replicate 1
# [5] = P. falciparum, 72 h, screen at 2 μg/mL, replicate 2
# [6] = P. falciparum, 120 h, screen at 2 μg/mL, replicate 1
# [7] = P. falciparum, 120 h, screen at 2 μg/mL, replicate 2
# [8] = T. gondii, screen at 2 μg/mL, replicate 1
# [9] = T. gondii, screen at 2 μg/mL, replicate 2
structure (smiles),measurement,setting,value
CC(/C=C/C(=O)NO[C@@H]1O[C@H](CO)[C@@H](O)[C@H](O)[C@H]1O)=C\[C@@H](C)C(=O)c1ccc(N(C)C)cc1 [Trichostatin C],Pf_72h_%Growth_Rep1,[1]; [4],75.18%
same,Pf_72h_%Growth_Rep2,[1]; [5],84.35%
same,Pf_120h_%Growth_Rep1,[2]; [6],157.32%
same,Pf_120h_%Growth_Rep2,[2]; [7],88.61%
same,Tg_72h_%Growth_Rep1,[3]; [8],87.04%
same,Tg_72h_%Growth_Rep2,[3]; [9],108.99%
O=C(O)c1ccc[nH]1 [Pyrrole-2-carboxylic acid],activity at 2 µg/mL,"[1]; 3D7, P. falciparum, 72 h, parasite screen 2 μg/mL, % growth, replicate 1, read-out: Pf_72h_%Growth_Rep1",86.7%
same,activity at 2 µg/mL,"[1]; 3D7, P. falciparum, 72 h, parasite screen 2 μg/mL, % growth, replicate 2, read-out: Pf_72h_%Growth_Rep2",115%
same,activity at 2 µg/mL,"[2]; 3D7, P. falciparum, 120 h, parasite screen 2 μg/mL, % growth, replicate 1, read-out: Pf_120h_%Growth_Rep1",88.6%
same,activity at 2 µg/mL,"[2]; 3D7, P. falciparum, 120 h, parasite screen 2 μg/mL, % growth, replicate 2, read-out: Pf_120h_%Growth_Rep2",136%
same,percent parasite growth at 2 µg/mL,"[3]; T. gondii, parasite screen 2 μg/mL, % growth, replicate 1, read-out: Tg_72h_%Growth_Rep1",130%
same,percent parasite growth at 2 µg/mL,"[3]; T. gondii, parasite screen 2 μg/mL, % growth, replicate 2, read-out: Tg_72h_%Growth_Rep2",86.8%
CCC(C)C1OC2(CCC1C)CC1CC(CC=C(C)C(OC3CC(OC)C(O)C(C)O3)C(C)C=CC=C3COC4C(O)C(C)=CC(C(=O)O1)C34O)O2 (stereo not shown) [BIA-I1150],Pf_72h_%Growth_Rep1,"[1]; P. falciparum 3D7, 72 h, library screen at 2 μg/mL, % growth, replicate 1",84.82%
same,Pf_72h_%Growth_Rep2,"[1]; P. falciparum 3D7, 72 h, library screen at 2 μg/mL, % growth, replicate 2",14.34%
same,Pf_120h_%Growth_Rep1,"[2]; P. falciparum 3D7, 120 h, library screen at 2 μg/mL, % growth, replicate 1",91.15%
same,Pf_120h_%Growth_Rep2,"[2]; P. falciparum 3D7, 120 h, library screen at 2 μg/mL, % growth, replicate 2",112.03%
same,Tg_72h_%Growth_Rep1,"[3]; T. gondii RH, library screen at 2 μg/mL, % growth, replicate 1",134.07%
same,Tg_72h_%Growth_Rep2,"[3]; T. gondii RH, library screen at 2 μg/mL, % growth, replicate 2",88.13%
C[C@H]1CCC/C=C/[C@@H]2C[C@H](O)C[C@H]2[C@H](O)/C=C/C(=O)O1 [Brefeldin A],activity at 2 µg/mL,"[1]; 3D7, 72 h, P. falciparum, 72 h, screen at 2 μg/mL, replicate 1, read-out: Pf_72h_%Growth_Rep1",4.33%
same,activity at 2 µg/mL,"[1]; 3D7, 72 h, P. falciparum, 72 h, screen at 2 μg/mL, replicate 2, read-out: Pf_72h_%Growth_Rep2",-0.69%
same,activity at 2 µg/mL,"[2]; 3D7, 120 h, P. falciparum, 120 h, screen at 2 μg/mL, replicate 1, read-out: Pf_120h_%Growth_Rep1",5.53%
same,activity at 2 µg/mL,"[2]; 3D7, 120 h, P. falciparum, 120 h, screen at 2 μg/mL, replicate 2, read-out: Pf_120h_%Growth_Rep2",2.87%
same,percent parasite growth at 2 µg/mL,"[3]; T. gondii, screen at 2 μg/mL, replicate 1, read-out: Tg_72h_%Growth_Rep1",-1.55%
same,percent parasite growth at 2 µg/mL,"[3]; T. gondii, screen at 2 μg/mL, replicate 2, read-out: Tg_72h_%Growth_Rep2",0.61%
C[C@@]12c3ccc4c(c3C(=O)c3occ(c31)[C@@H](O)C[C@H]2O)CCC4=O [Demethoxyviridiol],Pf_72h_%Growth_Rep1,[1]; [4],73.11%
same,Pf_72h_%Growth_Rep2,[1]; [5],74.92%
same,Pf_120h_%Growth_Rep1,[2]; [6],76.39%
same,Pf_120h_%Growth_Rep2,[2]; [7],74.74%
same,Tg_72h_%Growth_Rep1,[3]; [8],264.14%
same,Tg_72h_%Growth_Rep2,[3]; [9],123.20%
"CC[C@H]1OC(=O)C[C@@H](O)[C@H](C)[C@@H](O[C@@H]2O[C@H](C)[C@@H](O)[C@H](N(C)C)[C@H]2O)[C@@H](CCN2C[C@H](C)C[C@H](C)C2)C[C@@H](C)C(=O)/C=C/C(C)=C/[C@@H]1CO[C@@H]1O[C@H](C)[C@@H](O)[C@@H](OC)[C@H]1OC.O=P(O)(O)O [Tilmicosin phosphate, reference compound]",1) Growth (%) at 72 h,"[1]; P. falciparum, 2 μg/mL, 72 h",22.07%
same,Mean,"[1]; P. falciparum, 72 h, 2 μg/mL, mean of both replicates, growth (% of control)",22.07
same,Pf_72h_%Growth_Rep1,[1]; [4],4.49%
same,Pf_72h_%Growth_Rep2,[1]; [5],39.64%
same,2) Growth (%) at 120 h,"[2]; P. falciparum, 2 μg/mL, 120 h",7.83%
same,Pf_120h_%Growth_Rep1,[2]; [6],10.28%
same,Pf_120h_%Growth_Rep2,[2]; [7],5.38%
same,3) Fold change (72 h/120 h),"[2]; P. falciparum, growth at 72 h / growth at 120 h, 2 μg/mL",2.8
same,Tg_72h_%Growth_Rep1,[3]; [8],41.21%
same,Tg_72h_%Growth_Rep2,[3]; [9],38.33%
Cn1c2ccccc2c(=O)c2c(O)cc3c(c21)C=CC(C)(C)O3 [BIA-N1949],Pf_72h_%Growth_Rep1,"[1]; P. falciparum 3D7, 72 h, parasite screen at 2 μg/mL, % growth, replicate 1",90.51%
same,Pf_72h_%Growth_Rep2,"[1]; P. falciparum 3D7, 72 h, parasite screen at 2 μg/mL, % growth, replicate 2",117.30%
same,Pf_120h_%Growth_Rep1,"[2]; P. falciparum 3D7, 120 h, parasite screen at 2 μg/mL, % growth, replicate 1",85.11%
same,Pf_120h_%Growth_Rep2,"[2]; P. falciparum 3D7, 120 h, parasite screen at 2 μg/mL, % growth, replicate 2",95.19%
same,Tg_72h_%Growth_Rep1,"[3]; T. gondii, parasite screen at 2 μg/mL, % growth, replicate 1",111.30%
same,Tg_72h_%Growth_Rep2,"[3]; T. gondii, parasite screen at 2 μg/mL, % growth, replicate 2",95.22%
"C/C=C/C=C/C=C/C(=O)N[C@@H](Cc1ccccc1)C(=O)N[C@H]1COC(=O)[C@@H]2CCCN2C(=O)[C@H](C)NC(=O)[C@H](C)N(C)C(=O)[C@@H]2CCCN2C1=O [A 54556B] ({Octatrienoyl(2E,4E,6E)}-FSP[NMeA]AP; ester 2-C)",Pf_72h_%Growth_Rep1,"[1]; library screen at 2 μg/mL, 72 h, % growth, replicate 1",78.68%
same,Pf_72h_%Growth_Rep2,"[1]; library screen at 2 μg/mL, 72 h, % growth, replicate 2",74.34%
same,Pf_120h_%Growth_Rep1,"[2]; library screen at 2 μg/mL, 120 h, % growth, replicate 1",65.42%
same,Pf_120h_%Growth_Rep2,"[2]; library screen at 2 μg/mL, 120 h, % growth, replicate 2",57.54%
same,Tg_72h_%Growth_Rep1,"[3]; library screen at 2 μg/mL, % growth, replicate 1",115.90%
same,Tg_72h_%Growth_Rep2,"[3]; library screen at 2 μg/mL, % growth, replicate 2",86.45%
